The text below walks through data of patent US9795688B2, “Cell-specific targeting using nanostructured delivery systems” (SmartDyeLivery GmbH, priority 2013, dated 2017).

Holding throughout (format): cell-based
In series [1] the target is T1, OATP1B3 (Homo sapiens, UniProt Q9NPD5).
T1 construct: expressed in transfected cells; host or cells: HEK-293T
T1 sequence (Q9NPD5 1-702): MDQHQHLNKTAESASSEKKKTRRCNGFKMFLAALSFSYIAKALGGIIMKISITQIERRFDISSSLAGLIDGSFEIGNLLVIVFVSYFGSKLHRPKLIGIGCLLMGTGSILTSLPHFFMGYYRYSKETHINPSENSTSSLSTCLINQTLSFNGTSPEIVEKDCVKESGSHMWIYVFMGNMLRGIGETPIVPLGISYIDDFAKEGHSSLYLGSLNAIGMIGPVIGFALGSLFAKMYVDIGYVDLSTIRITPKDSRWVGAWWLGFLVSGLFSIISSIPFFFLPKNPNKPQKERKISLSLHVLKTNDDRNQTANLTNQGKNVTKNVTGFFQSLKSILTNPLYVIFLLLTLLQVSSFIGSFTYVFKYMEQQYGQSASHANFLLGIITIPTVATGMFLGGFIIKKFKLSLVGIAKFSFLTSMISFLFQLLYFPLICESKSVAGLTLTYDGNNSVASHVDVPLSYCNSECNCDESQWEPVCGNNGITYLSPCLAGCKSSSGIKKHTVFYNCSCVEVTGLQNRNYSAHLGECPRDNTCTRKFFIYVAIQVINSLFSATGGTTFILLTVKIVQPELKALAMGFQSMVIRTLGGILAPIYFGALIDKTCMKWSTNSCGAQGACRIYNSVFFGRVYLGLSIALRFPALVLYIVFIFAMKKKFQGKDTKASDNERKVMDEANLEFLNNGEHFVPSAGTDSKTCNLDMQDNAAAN
As to the kind of experiment: Inhibition of radioactively labeled substrate uptake in transfected HEK-293T cells. The note with it: 10 μmol/L, 5 minutes; [3H]Sulfobromophthalein. Here is the method: (§1) HEK-293T cells were transfected with human tissue-specific hepatocytic transporters. Then the uptake of the polymethine dye DY-635 as a targeting unit into these tissue-specific transporters was investigated for FIG. 10 A. To do so, the cells were sown onto 96 well plates, incubated for 24 hours under standard conditions, then incubated 5 minutes with DY-635 (final concentration in the well: 10 μmol/L) after changing the medium. Next the cells were lysed and the lysates were measured by fluorimetry. […] The uptake by OCT1 can be evaluated as negligible. In FIG. 10 B the question of whether DY-635 binds as an inhibitor to the basolateral hepatocytic transporters was investigated. For this purpose, the HEK-293T cells transfected with the tissue-specific transporters were sown and incubated as described above. After 24 hours the cells were incubated for 5 minutes with either a radioactively labeled transporter-specific substrate or with the radioactive-specific substrate with a specific inhibitor or with DY-635 (10 μmol/L final concentration) (the substrates and their concentrations are shown in Table 3 below). The cells were then washed and lysed in the well. To quantify the uptake, the radioactive radiation of the substrates was used. […] This illustrates the strong interaction of DY-635 with the tissue-specific hepatocytic transporters. It can be concluded that by exposure of DY-635 to the surface of a nanostructured transporter system, immobilization on the cell surface of the hepatocyte occurs, resulting in subsequent endocytosis of the nanoparticle.

For series [2], the target named is T2, OATP1B1 (Homo sapiens, UniProt Q9Y6L6).
T2 construct: expressed in transfected cells; host or cells: HEK-293T
T2 sequence (Q9Y6L6 1-691): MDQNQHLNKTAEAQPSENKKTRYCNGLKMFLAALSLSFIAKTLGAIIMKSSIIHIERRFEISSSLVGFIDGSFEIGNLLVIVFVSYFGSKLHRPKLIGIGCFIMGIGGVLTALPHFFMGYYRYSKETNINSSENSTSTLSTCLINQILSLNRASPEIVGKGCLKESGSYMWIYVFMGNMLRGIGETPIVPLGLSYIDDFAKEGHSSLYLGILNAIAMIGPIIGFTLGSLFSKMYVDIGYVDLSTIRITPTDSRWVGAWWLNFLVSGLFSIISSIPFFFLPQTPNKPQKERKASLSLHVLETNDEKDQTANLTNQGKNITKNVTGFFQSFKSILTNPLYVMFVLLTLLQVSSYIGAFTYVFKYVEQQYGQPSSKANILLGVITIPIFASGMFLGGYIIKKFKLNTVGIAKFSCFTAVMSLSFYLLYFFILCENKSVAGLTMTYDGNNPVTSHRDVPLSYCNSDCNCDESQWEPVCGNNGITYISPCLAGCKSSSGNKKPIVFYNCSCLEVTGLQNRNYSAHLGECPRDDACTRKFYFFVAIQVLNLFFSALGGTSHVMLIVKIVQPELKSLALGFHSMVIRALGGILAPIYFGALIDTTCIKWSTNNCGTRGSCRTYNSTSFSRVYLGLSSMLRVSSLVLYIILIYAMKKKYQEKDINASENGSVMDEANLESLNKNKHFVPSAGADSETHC
The description is as above. The note with it: 10 μmol/L, 5 minutes; [3H]Estradiol 30 nM. Here is the method: as §1

Series [3] addresses T3, OAT2 (Homo sapiens, UniProt Q9Y694).
T3 construct: expressed in transfected cells; host or cells: HEK-293T
T3 sequence (Q9Y694 1-548): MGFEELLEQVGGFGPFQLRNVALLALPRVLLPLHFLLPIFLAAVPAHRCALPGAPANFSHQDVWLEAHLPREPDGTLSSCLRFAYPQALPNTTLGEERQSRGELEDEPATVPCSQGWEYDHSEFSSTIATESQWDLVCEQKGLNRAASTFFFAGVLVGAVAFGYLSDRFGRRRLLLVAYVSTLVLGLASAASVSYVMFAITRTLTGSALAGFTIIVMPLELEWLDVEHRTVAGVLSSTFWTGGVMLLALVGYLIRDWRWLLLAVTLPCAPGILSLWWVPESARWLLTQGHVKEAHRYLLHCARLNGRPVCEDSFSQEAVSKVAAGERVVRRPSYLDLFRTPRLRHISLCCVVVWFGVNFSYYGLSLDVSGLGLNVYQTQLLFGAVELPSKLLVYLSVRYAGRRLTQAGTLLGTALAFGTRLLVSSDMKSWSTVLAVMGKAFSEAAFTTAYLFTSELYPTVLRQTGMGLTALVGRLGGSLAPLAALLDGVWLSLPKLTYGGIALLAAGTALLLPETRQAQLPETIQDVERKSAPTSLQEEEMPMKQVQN
The description is as above. The note with it: 10 μmol/L, 5 minutes; [3H]cGMP 10 nM. Here is the method: as §1

Series [4] deals with T4, OCT1 (Homo sapiens, UniProt O15245).
T4 construct: expressed in transfected cells; host or cells: HEK-293T
T4 sequence (O15245 1-554): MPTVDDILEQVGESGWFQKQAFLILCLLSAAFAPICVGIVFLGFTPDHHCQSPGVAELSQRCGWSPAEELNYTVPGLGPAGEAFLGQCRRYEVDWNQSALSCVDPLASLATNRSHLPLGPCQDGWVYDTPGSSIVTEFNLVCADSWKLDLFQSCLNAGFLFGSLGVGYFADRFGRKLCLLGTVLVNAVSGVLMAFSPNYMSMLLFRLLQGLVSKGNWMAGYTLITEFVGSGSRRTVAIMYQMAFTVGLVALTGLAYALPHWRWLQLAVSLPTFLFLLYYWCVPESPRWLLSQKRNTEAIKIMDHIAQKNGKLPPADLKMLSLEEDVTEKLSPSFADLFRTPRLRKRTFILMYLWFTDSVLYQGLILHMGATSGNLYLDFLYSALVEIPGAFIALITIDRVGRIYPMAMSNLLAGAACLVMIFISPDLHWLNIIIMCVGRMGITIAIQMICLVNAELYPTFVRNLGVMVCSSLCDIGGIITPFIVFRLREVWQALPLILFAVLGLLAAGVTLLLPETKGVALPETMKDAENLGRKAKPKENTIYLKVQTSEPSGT
The series is described as above. The note with it: 10 μmol/L, 5 minutes; [3H]1-Methyl-4-phenylpyridinium. Here is the method:
as §1

Series [5] concerns the target T5, NTCP (Homo sapiens, UniProt Q14973).
T5 construct: expressed in transfected cells; host or cells: HEK-293T
T5 sequence (Q14973 1-349): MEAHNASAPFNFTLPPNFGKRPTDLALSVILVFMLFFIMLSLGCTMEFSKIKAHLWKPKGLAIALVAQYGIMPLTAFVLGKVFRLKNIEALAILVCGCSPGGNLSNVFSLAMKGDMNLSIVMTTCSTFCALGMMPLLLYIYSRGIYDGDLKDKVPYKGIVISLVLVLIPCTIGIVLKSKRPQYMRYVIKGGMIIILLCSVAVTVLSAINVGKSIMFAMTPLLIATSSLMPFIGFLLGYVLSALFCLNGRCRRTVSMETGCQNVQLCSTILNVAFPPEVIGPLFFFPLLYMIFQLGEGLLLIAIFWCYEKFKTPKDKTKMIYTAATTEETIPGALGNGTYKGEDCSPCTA
As to the kind of experiment: Uptake of DY-635 into transporter-transfected HEK-293T cells. The note with it: 10 μmol/L, 5 minutes. Here is the method:
as §1, with “It can be concluded that by exposure of DY-635 to the surface of a nanostructured transporter system, immobilization on the cell surface of the hepatocyte occurs, resulting in subsequent endocytosis of the nanoparticle.” left out

Series [6] concerns the target T4, OCT1. The description is as above. The note with it: 10 μmol/L, 5 minutes. Here is the method: as §1, with “It can be concluded that by exposure of DY-635 to the surface of a nanostructured transporter system, immobilization on the cell surface of the hepatocyte occurs, resulting in subsequent endocytosis of the nanoparticle.” left out

Each structure is given as a SMILES string.

Take `CC(C)(C)C1=CC(=CC=CC2=[N+](CCCCCC(=O)O)c3ccc(S(=O)(=O)[O-])cc3C2(C)C)c2cc3c4c(c2O1)CCCN4CCC3` [DY-635]: the “inhibition of OATP1B3” value in series [1] is recorded as “strong indicator”. Besides, the “inhibition of OATP1B1” value in series [2] is on record as “strong indicator”. For the same compound, in series [3], the “inhibition of OAT2” value is given as “inhibited”. In addition, the “inhibition of OCT1” value in series [4] was “inhibited”. In addition, the “uptake of DY-635 by NTCP” value in series [5] is “substrate for NTCP”. Further, the “uptake of DY-635 by OCT1” value in series [6] was “negligible”.
